Laboratory results taken from patent US20090258942A1 (priority 2008, published 2009).

Experiments:
TNF-RE tkLuc = TNF-RE tkLuc reporter, effect of antiestrogens; assay type: cell-based; details: in contrast to E2
Excerpt: (§1) Light emission at 560 nm is conveniently quantified in optical density units (O.D.560 nm).

[1] = system: MCF-7 breast cancer xenografts; experiment: MCF-7 kidney capsule xenografts; details: 28 days; E2 0.5 mg/h, Calycosin 2.5 mg/h in saline; FIG. 5
Description: MCF-7 xenografts were introduced into nude mouse kidneys. Mice were randomized to three treatment groups. […] Each treatment group was treated for 28 days, after which mice were euthanized and the kidneys containing the xenografts were excised, photographed and weighed.

[2] = system: estrogen receptor-positive breast cancer; details: five years of therapy; cited from earlier work
[3] = system: primary invasive breast cancer; details: women at high risk for breast cancer; cited from earlier work
ERβ = ERβ (Homo sapiens, UniProt Q92731); details: in the presence of ERβ
Excerpt: as §1

[4] = target: estrogen receptor beta (ERβ) (Homo sapiens, UniProt Q92731); details: added to (a), (b), (c) or (d); FIGS. 4a-4d
breast cancer = details: among 5129 women in the treatment group; median follow-up 40 months; cited from earlier work

Sequence of ERβ (Q92731 whole entry): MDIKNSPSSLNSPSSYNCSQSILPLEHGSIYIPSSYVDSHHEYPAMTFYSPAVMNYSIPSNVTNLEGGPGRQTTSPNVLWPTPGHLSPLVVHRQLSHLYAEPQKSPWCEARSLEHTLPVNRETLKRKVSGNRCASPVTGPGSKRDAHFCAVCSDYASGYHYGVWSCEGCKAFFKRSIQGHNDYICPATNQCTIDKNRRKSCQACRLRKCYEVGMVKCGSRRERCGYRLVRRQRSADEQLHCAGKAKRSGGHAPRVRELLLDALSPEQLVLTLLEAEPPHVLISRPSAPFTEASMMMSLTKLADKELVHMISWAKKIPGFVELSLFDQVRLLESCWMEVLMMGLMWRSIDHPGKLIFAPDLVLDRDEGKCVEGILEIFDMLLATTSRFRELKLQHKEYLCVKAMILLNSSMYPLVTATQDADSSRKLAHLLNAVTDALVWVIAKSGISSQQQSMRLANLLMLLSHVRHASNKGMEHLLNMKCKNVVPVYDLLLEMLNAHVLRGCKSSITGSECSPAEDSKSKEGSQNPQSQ
Sequence of estrogen receptor beta (ERβ) (Q92731 whole entry): as above

C[C@]12CC[C@@H]3c4ccc(O)cc4C[C@@H](CCCCCCCCC[S+]([O-])CCCC(F)(F)C(F)(F)F)[C@H]3[C@@H]1CC[C@@H]2O (stereo partly shown) [ICI 182780]
activation of TNF-RE tkLuc (TNF-RE tkLuc): 2 fold

COc1ccc(-c2coc3cc(O)ccc3c2=O)cc1O [Calycosin, 3-(4-methoxy-3-hydroxyphenyl)-7-hydroxycoumarin]
growth of MCF-7 kidney capsule xenografts as compared to control [1]: inhibits the growth of MCF-7 breast cancer xenografts

CC/C(=C(\c1ccccc1)c1ccc(OCCN(C)C)cc1)c1ccccc1 [tamoxifen]
activation of TNF-RE tkLuc (TNF-RE tkLuc): 2 fold | reduction of mortality from breast cancer [2]: 22% | reduction of the risk of recurrences [2]: 42% | reduction of the risk of primary invasive breast cancer [3]: 49%

C[C@]12CC[C@@H]3c4ccc(O)cc4CC[C@H]3[C@@H]1CC[C@@H]2O [E2, estradiol]
repression of TNF-α activation of TNF-RE tkLuc (ERβ): 60-80%

O=C(c1ccc(OCCN2CCCCC2)cc1)c1c(-c2ccc(O)cc2)sc2cc(O)ccc12 [raloxifene]
activation of TNF-RE tkLuc (TNF-RE tkLuc): 2 fold | effect of addition on ERE activation by compounds (a)-(d) through ERβ [4]: reduced this activation | cases of breast cancer (breast cancer): 13 cases
